Results from paper PMC3914206.

Experiments:
panel of 442 kinases [1] = biological target: T1, panel of 442 kinases (Homo sapiens, UniProt P54760); format: binding; settings: Compound Concentration 10 µM
T1 construct: purchased KINOMEscan
T1 sequence (P54760 16-987): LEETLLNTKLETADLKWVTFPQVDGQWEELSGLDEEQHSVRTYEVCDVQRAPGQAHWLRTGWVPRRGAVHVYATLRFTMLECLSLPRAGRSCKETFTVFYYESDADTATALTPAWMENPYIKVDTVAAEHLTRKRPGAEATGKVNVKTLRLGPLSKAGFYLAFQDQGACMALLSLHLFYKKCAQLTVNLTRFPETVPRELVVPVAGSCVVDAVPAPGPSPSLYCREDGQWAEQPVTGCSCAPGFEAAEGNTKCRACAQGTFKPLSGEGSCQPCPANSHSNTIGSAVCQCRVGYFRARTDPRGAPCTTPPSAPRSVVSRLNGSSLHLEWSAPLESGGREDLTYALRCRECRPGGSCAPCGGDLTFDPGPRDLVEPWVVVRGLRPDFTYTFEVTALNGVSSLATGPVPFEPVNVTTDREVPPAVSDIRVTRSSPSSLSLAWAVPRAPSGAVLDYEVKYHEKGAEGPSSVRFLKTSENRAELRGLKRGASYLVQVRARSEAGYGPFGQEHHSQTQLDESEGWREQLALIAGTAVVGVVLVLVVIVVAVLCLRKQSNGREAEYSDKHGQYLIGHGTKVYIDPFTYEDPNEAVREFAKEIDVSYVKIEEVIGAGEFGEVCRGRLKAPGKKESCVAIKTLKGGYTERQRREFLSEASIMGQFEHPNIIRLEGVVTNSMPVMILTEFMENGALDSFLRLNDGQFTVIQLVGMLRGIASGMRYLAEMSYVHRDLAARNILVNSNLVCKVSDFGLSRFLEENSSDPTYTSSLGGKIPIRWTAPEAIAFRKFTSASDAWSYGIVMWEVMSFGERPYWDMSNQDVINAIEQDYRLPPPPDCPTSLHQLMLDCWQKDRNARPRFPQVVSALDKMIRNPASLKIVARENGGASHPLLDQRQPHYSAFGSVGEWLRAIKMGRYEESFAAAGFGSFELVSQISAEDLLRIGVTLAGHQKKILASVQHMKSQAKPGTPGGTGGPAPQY
From the text: (§1) We assessed the selectivity of members of this scaffold using the KINOMEscan methodology across a near comprehensive panel of 442 kinases [[18,27]].

panel of 442 kinases [2] = biological target: T2, panel of 442 kinases (Homo sapiens, UniProt Q02763); format: binding; settings: kinase TIE2; compound concentration 10 µM
T2 construct: purchased KINOMEscan
From the text: as §1

T2 sequence (Q02763 23-1124): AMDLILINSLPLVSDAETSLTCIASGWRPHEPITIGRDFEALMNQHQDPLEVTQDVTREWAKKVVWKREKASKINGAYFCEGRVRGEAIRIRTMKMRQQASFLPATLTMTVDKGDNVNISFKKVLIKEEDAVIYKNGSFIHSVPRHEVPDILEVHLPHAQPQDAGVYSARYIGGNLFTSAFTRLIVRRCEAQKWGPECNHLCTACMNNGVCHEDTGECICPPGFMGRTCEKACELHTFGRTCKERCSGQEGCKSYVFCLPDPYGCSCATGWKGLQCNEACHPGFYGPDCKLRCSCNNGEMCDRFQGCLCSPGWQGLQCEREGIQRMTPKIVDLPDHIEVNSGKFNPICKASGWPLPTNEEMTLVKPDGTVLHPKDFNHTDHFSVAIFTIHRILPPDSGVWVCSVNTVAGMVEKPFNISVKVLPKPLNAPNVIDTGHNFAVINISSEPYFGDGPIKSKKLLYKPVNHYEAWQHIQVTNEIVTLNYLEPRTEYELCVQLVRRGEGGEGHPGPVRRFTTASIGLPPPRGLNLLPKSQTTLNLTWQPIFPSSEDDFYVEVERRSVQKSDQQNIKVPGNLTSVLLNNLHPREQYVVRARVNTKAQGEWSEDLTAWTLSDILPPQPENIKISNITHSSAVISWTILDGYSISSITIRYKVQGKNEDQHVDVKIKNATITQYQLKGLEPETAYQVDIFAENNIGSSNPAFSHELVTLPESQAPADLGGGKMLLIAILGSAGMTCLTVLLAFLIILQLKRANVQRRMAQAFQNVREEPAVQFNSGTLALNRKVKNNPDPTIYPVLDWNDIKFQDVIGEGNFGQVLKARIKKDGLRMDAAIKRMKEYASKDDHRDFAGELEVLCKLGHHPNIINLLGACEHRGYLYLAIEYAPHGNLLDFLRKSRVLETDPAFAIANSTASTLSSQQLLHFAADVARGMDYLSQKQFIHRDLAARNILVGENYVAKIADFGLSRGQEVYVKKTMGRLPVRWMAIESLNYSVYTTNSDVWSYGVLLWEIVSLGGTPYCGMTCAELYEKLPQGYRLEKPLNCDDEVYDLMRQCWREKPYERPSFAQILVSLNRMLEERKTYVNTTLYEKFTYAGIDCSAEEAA

| SMILES | KINOMEscan: EPHB4 (panel of 442 kinases [1]) | % Ctrl, TIE2 (panel of 442 kinases [2]) |
| --- | --- | --- |
| CCOc1cc(C(=O)N2CCC(N3CCN(C)CC3)CC2)ccc1Nc1ncc2c(n1)N(C1CCCC1)c1ccccc1C(=O)N2C [Compound 26] | 100 | 100 % Ctrl |
| COc1cc(C(=O)N2CCC(N3CCN(C)CC3)CC2)ccc1Nc1ncc2c(n1)N(C1CCCC1)c1ccccc1C(=O)N2C [Compound 25, 11-cyclopentyl-2-((2-methoxy-4-(4-(4-methylpiperazin-1-yl)piperidine-1-carbonyl)phenyl)amino)-5-methyl-5H-benzo[e]pyrimido[5,4-b][1,4]diazepin-6(11H)-one] | 100 | 100 % Ctrl |
| COc1cc(C(=O)N2CCC(N3CCN(C)CC3)CC2)ccc1Nc1ncc2c(n1)N1CCc3cccc(c31)C(=O)N2C [Compound 24] | – | 79 % Ctrl |
| COc1cc(C(=O)N2CCC(N3CCN(C)CC3)CC2)ccc1Nc1ncc2c(n1)N(C)c1ccccc1C(=O)N2C [15 (LRRK2-IN-1)] | 100 | 100 % Ctrl |
